Assays:
Test in all cases: KinaseProfiler off-target kinase profiling
Type in all cases: biochemical
Conditions in all cases: 10 μM, ATP near Km
[1] = biological target: T1, SRPK2 (Homo sapiens, UniProt P78362)
T1 construct: purchased Millipore, Inc. (KinaseProfiler service)
Summary of the method: (§1)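 Panel-wide off-target screen: one concentration (10 μM), duplicate determinations, ATP approximately at Km for the individual kinase; output POC, duplicate mean.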

[2] = biological target: T2, PKCbetaII (Homo sapiens, UniProt P05771)
T2 construct: purchased Millipore, Inc. (KinaseProfiler service)
Summary of the method: as §1

[3] = biological target: T3, MAPKAP-K2 (Homo sapiens, UniProt P49137)
T3 construct: purchased Millipore, Inc. (KinaseProfiler service)
Summary of the method: as §1

[4] = biological target: T4, Hck (Homo sapiens, UniProt P08631)
T4 construct: purchased Millipore, Inc. (KinaseProfiler service)
Summary of the method: as §1

[5] = biological target: T5, CK2 (Homo sapiens, UniProt P68400)
T5 construct: purchased Millipore, Inc. (KinaseProfiler service)
Summary of the method: as §1

[6] = biological target: T6, NEK6 (Homo sapiens, UniProt Q9HC98)
T6 construct: purchased Millipore, Inc. (KinaseProfiler service)
Summary of the method: as §1

[7] = biological target: T7, EGFR (Homo sapiens, UniProt P00533)
T7 construct: purchased Millipore, Inc. (KinaseProfiler service)
Summary of the method: as §1

[8] = biological target: T8, CAMK2g (Homo sapiens, UniProt Q13555)
T8 construct: purchased Millipore, Inc. (KinaseProfiler service)
Summary of the method: as §1

[9] = biological target: T9, IR (Homo sapiens, UniProt P06213)
T9 construct: purchased Millipore, Inc. (KinaseProfiler service)
Summary of the method: as §1

[10] = biological target: T10, PRKG1alpha (Homo sapiens, UniProt Q13976)
T10 construct: purchased Millipore, Inc. (KinaseProfiler service)
Summary of the method: as §1

[11] = biological target: T11, FGFR3 (Homo sapiens, UniProt P22607)
T11 construct: purchased Millipore, Inc. (KinaseProfiler service)
Summary of the method: as §1

[12] = biological target: T12, EphB3 (Homo sapiens, UniProt P54753)
T12 construct: purchased Millipore, Inc. (KinaseProfiler service)
Summary of the method: as §1

[13] = biological target: T13, FGFR2 (Homo sapiens, UniProt P21802)
T13 construct: purchased Millipore, Inc. (KinaseProfiler service)
Summary of the method: as §1

[14] = biological target: T14, EphB1 (Homo sapiens, UniProt P54762)
T14 construct: purchased Millipore, Inc. (KinaseProfiler service)
Summary of the method: as §1

[15] = biological target: T15, EphA7 (Homo sapiens, UniProt Q15375)
T15 construct: purchased Millipore, Inc. (KinaseProfiler service)
Summary of the method: as §1

[16] = biological target: T16, TLK2 (Homo sapiens, UniProt Q86UE8)
T16 construct: purchased Millipore, Inc. (KinaseProfiler service)
Summary of the method: as §1

[17] = biological target: T17, EphB4 (Homo sapiens, UniProt P54760)
T17 construct: purchased Millipore, Inc. (KinaseProfiler service)
Summary of the method: as §1

[18] = biological target: T18, PKCgamma (Homo sapiens, UniProt P05129)
T18 construct: purchased Millipore, Inc. (KinaseProfiler service)
Summary of the method: as §1

[19] = biological target: T19, PKD2 (Homo sapiens, UniProt Q9BZL6)
T19 construct: purchased Millipore, Inc. (KinaseProfiler service)
Summary of the method: as §1

[20] = biological target: T20, IKKbeta (Homo sapiens, UniProt O14920)
T20 construct: purchased Millipore, Inc. (KinaseProfiler service)
Summary of the method: as §1

[21] = biological target: T21, MSK1 (Homo sapiens, UniProt O75582)
T21 construct: purchased Millipore, Inc. (KinaseProfiler service)
Summary of the method: as §1

[22] = biological target: T22, Haspin (Homo sapiens, UniProt Q8TF76)
T22 construct: purchased Millipore, Inc. (KinaseProfiler service)
Summary of the method: as §1

[23] = biological target: T23, PKCdelta (Homo sapiens, UniProt Q05655)
T23 construct: purchased Millipore, Inc. (KinaseProfiler service)
Summary of the method: as §1

[24] = biological target: T24, MuSK (Homo sapiens, UniProt O15146)
T24 construct: purchased Millipore, Inc. (KinaseProfiler service)
Summary of the method: as §1

[25] = biological target: T25, FAK (Homo sapiens, UniProt Q05397)
T25 construct: purchased Millipore, Inc. (KinaseProfiler service)
Summary of the method: as §1

[26] = biological target: T26, p38gamma (Homo sapiens, UniProt P53778)
T26 construct: purchased Millipore, Inc. (KinaseProfiler service)
Summary of the method: as §1

[27] = biological target: T27, ROCK-I (Homo sapiens, UniProt Q13464)
T27 construct: purchased Millipore, Inc. (KinaseProfiler service)
Summary of the method: as §1

[28] = biological target: T28, Fms (Homo sapiens, UniProt P07333)
T28 construct: purchased Millipore, Inc. (KinaseProfiler service)
Summary of the method: as §1

[29] = biological target: T29, p70S6K (Homo sapiens, UniProt P23443)
T29 construct: purchased Millipore, Inc. (KinaseProfiler service)
Summary of the method: as §1

[30] = biological target: T30, CLK3 (Homo sapiens, UniProt P49761)
T30 construct: purchased Millipore, Inc. (KinaseProfiler service)
Summary of the method: as §1

[31] = biological target: T31, MAPKAP-K5 (Homo sapiens, UniProt Q8IW41)
T31 construct: purchased Millipore, Inc. (KinaseProfiler service)
Summary of the method: as §1

[32] = biological target: T32, MINK (Homo sapiens, UniProt Q8N4C8)
T32 construct: purchased Millipore, Inc. (KinaseProfiler service)
Summary of the method: as §1

[33] = biological target: T33, NEK2 (Homo sapiens, UniProt P51955)
T33 construct: purchased Millipore, Inc. (KinaseProfiler service)
Summary of the method: as §1

[34] = biological target: T34, Rse (Homo sapiens, UniProt Q06418)
T34 construct: purchased Millipore, Inc. (KinaseProfiler service)
Summary of the method: as §1

[35] = biological target: T35, MKK6 (Homo sapiens, UniProt P52564)
T35 construct: purchased Millipore, Inc. (KinaseProfiler service)
Summary of the method: as §1

[36] = biological target: T36, CDK7/cyclinH/MAT1 (Homo sapiens, UniProt P50613)
T36 construct: purchased Millipore, Inc. (KinaseProfiler service)
Summary of the method: as §1

[37] = biological target: T37, CDK5/p25 (Homo sapiens, UniProt Q00535)
T37 construct: purchased Millipore, Inc. (KinaseProfiler service)
Summary of the method: as §1

[38] = biological target: T38, AKT1 (Homo sapiens, UniProt P31749)
T38 construct: purchased Millipore, Inc. (KinaseProfiler service)
Summary of the method: as §1

[39] = biological target: T39, GRK7 (Homo sapiens, UniProt Q8WTQ7)
T39 construct: purchased Millipore, Inc. (KinaseProfiler service)
Summary of the method: as §1

[40] = biological target: T40, VRK2 (Homo sapiens, UniProt Q86Y07)
T40 construct: purchased Millipore, Inc. (KinaseProfiler service)
Summary of the method: as §1

[41] = biological target: T41, WNK2 (Homo sapiens, UniProt Q9Y3S1)
T41 construct: purchased Millipore, Inc. (KinaseProfiler service)
Summary of the method: as §1

T28 sequence (P07333 20-972): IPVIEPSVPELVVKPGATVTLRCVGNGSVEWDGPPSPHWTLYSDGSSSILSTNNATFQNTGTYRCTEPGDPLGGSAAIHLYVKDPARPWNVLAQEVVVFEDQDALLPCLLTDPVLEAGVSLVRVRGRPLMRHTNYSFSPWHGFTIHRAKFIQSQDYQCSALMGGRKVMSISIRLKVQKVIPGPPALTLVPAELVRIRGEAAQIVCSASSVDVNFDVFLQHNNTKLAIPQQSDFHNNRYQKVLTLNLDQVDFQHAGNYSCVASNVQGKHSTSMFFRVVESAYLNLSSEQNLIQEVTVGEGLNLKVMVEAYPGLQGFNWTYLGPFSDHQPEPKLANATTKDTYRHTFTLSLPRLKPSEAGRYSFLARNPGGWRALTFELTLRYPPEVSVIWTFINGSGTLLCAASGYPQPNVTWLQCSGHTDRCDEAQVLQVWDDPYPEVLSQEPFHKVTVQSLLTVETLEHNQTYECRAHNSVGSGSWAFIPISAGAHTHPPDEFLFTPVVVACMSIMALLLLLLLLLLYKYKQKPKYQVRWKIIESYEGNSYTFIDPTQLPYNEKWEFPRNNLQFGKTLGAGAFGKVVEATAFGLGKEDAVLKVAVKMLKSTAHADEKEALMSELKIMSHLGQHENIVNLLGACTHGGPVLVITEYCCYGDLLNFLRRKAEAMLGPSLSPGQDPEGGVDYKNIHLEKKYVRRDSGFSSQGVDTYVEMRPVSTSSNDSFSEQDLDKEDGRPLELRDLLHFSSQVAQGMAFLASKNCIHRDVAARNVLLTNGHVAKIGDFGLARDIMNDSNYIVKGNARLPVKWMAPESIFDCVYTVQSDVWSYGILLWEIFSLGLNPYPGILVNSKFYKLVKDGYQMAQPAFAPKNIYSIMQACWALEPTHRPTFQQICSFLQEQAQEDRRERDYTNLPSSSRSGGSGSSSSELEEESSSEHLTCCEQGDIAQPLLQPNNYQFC
T1 sequence (P78362 whole entry): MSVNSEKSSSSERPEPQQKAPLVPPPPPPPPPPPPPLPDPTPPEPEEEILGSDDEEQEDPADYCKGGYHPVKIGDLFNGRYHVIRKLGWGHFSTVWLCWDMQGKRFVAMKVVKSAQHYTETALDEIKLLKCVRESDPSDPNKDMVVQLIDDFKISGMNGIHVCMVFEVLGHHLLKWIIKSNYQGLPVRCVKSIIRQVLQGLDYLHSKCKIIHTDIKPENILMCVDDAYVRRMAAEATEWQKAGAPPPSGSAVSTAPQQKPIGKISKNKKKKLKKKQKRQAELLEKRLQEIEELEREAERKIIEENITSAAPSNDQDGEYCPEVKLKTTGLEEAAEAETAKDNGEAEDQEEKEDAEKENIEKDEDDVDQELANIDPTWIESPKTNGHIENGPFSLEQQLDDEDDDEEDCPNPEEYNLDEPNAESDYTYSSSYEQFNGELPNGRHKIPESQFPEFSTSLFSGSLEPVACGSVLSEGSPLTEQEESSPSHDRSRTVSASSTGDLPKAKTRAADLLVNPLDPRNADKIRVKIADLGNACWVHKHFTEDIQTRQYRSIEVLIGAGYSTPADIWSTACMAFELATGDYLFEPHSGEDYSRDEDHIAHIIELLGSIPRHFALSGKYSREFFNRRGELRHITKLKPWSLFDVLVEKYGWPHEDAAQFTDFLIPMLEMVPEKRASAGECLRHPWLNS
T13 sequence (P21802 22-821): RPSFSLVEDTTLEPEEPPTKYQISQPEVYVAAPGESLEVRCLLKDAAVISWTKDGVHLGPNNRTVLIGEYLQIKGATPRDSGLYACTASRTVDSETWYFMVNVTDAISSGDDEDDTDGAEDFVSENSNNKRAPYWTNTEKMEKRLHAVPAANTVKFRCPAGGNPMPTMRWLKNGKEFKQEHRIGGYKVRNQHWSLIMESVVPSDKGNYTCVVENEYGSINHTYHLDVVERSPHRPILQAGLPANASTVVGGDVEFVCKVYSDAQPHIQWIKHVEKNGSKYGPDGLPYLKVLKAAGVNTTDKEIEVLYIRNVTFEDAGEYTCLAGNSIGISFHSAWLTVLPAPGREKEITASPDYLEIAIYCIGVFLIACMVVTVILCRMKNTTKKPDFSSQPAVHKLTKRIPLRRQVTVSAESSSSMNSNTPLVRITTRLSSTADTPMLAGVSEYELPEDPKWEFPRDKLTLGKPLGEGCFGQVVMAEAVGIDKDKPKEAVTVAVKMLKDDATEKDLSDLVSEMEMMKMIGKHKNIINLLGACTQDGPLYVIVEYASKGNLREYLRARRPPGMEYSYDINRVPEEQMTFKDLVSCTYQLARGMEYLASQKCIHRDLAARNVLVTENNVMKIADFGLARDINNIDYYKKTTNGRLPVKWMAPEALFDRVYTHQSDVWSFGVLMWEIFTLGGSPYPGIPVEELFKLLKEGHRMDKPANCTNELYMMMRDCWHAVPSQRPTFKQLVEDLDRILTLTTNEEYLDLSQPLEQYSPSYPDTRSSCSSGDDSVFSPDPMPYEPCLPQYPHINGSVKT
T16 sequence (Q86UE8 whole entry): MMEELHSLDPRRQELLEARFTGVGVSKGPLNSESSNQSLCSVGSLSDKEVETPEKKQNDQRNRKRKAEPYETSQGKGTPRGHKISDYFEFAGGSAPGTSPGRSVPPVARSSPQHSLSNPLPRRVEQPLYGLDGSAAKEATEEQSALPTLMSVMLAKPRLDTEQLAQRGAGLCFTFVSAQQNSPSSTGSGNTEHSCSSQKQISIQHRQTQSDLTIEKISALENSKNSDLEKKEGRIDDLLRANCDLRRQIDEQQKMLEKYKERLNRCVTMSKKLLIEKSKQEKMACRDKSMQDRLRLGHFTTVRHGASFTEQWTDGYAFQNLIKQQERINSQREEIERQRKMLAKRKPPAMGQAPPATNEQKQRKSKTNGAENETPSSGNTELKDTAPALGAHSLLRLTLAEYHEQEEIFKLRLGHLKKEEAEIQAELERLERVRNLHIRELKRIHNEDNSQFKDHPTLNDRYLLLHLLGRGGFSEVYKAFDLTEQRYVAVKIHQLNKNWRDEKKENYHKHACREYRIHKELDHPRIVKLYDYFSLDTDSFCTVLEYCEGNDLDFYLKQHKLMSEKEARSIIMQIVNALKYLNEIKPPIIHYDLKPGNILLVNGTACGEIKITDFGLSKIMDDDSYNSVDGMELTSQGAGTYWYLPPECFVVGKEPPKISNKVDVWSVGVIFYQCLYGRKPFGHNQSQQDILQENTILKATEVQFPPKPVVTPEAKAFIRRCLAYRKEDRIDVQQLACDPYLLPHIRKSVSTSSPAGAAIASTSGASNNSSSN
T29 sequence (P23443 whole entry): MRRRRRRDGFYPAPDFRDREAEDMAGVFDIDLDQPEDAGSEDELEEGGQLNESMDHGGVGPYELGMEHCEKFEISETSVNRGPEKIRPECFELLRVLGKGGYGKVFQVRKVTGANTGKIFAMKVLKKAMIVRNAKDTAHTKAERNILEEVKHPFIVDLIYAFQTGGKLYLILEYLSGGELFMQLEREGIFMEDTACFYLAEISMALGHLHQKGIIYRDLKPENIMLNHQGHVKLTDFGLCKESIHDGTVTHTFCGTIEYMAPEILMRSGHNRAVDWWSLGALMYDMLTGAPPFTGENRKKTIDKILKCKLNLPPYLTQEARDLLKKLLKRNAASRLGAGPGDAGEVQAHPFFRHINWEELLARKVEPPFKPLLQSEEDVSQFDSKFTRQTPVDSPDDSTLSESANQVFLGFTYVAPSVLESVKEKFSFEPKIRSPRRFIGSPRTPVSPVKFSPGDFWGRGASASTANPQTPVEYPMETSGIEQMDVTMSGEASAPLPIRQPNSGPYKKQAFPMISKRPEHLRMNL
T24 sequence (O15146 24-869): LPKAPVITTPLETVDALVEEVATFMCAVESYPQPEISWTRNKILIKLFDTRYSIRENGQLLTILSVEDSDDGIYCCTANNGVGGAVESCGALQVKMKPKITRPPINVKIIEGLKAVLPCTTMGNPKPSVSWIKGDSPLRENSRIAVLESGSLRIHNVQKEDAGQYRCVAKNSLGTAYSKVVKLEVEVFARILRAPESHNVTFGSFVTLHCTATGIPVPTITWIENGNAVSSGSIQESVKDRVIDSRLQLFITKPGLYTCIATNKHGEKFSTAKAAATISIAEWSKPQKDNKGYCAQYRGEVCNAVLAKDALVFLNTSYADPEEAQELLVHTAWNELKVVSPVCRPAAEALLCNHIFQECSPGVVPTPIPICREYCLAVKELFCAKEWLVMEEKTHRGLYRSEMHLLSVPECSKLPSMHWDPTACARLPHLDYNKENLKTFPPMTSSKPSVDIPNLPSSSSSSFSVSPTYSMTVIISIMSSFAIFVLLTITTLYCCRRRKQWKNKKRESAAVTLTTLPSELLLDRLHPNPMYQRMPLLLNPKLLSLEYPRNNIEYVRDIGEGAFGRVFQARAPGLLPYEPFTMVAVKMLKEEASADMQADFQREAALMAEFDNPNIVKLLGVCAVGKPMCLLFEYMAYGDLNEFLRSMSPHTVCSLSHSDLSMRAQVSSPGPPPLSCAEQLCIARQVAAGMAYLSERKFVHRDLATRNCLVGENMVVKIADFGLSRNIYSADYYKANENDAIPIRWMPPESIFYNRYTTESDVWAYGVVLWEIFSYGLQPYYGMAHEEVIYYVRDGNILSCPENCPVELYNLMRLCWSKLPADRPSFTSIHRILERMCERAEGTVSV
T3 sequence (P49137 whole entry): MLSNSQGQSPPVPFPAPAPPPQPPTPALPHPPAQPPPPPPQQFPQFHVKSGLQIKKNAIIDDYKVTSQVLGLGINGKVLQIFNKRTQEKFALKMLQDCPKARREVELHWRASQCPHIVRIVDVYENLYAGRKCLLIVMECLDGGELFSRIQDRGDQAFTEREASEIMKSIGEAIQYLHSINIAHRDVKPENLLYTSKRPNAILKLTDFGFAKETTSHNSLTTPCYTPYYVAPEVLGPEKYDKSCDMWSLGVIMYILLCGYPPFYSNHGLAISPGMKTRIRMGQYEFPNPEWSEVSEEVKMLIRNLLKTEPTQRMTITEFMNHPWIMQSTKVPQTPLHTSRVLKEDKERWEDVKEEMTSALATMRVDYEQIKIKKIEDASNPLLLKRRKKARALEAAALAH

COCCN1C[C@@H](NC(=O)Nc2sc(C(C)C)nc2-c2ccccc2)[C@H](c2ccccc2)C1 [Example 48, 1-(2-isopropyl-4-phenylthiazol-5-yl)-3-((3S,4R)-1-(2-methoxyethyl)-4-phenylpyrrolidin-3-yl)urea]
Avg POC [1]: 109% of control | Avg POC [2]: 97.5% of control | Avg POC [3]: 109.5% of control | Avg POC [4]: 115.5% of control | Avg POC [5]: 106% of control | Avg POC [6]: 121.5% of control | Avg POC [7]: 111% of control | Avg POC [8]: 116% of control | Avg POC [9]: 102% of control | Avg POC [10]: 106% of control | Avg POC [11]: 103.5% of control | Avg POC [12]: 119% of control | Avg POC [13]: 106.5% of control | Avg POC [14]: 107.5% of control | Avg POC [15]: 101% of control | Avg POC [16]: 98% of control | Avg POC [17]: 99% of control | Avg POC [18]: 93.5% of control | Avg POC [19]: 115.5% of control | Avg POC [20]: 96% of control | Avg POC [21]: 121.5% of control | Avg POC [22]: 117% of control | Avg POC [23]: 119.5% of control | Avg POC [24]: 107.5% of control | Avg POC [25]: 107.5% of control | Avg POC [26]: 120.5% of control | Avg POC [27]: 103.5% of control | Avg POC [28]: 96% of control | Avg POC [29]: 107.5% of control | Avg POC [30]: 101.5% of control | Avg POC [31]: 108% of control | Avg POC [32]: 117% of control | Avg POC [33]: 112% of control | Avg POC [34]: 117% of control | Avg POC [35]: 121% of control | Avg POC [36]: 112.5% of control | Avg POC [37]: 110.5% of control | Avg POC [38]: 117% of control | Avg POC [39]: 122% of control | Avg POC [40]: 98% of control | Avg POC [41]: 92.5% of control

Reference: patent US9828360B2 (Array BioPharma Inc., priority 2012, dated 2017)
